Patent US20210010086A1, “MNK BIOMARKERS AND USES THEREOF” (eFFECTOR Therapeutics, Inc., priority 2015, published 2021)

Assays:
[1] = system: eIF4E phosphorylation (p-eIF4E); test: Immunoblotting of eIF4E phosphorylation in TMD8 cells; assay type: cell-based, human
Description: (§1) TMD8 human diffuse large B-cell lymphoma line was cultured in RPMI media supplemented with penicillin G (100 U/ml), streptomycin (100 μg/ml), 10% FBS in a humidified atmosphere of 5% CO2 maintained at 37° C. • (b) Drug Treatment
(§2) TMD8 cells were seeded prior to drug treatment. The following day, cells were treated with either DMSO (vehicle control) or MNK inhibitor (Compound 107) at the appropriate dose and time. • (c) Immunoblotting
(§3) Cells were spun down and washed with PBS and lysed in 1× RIPA buffer (Thermo Fisher) for 15 min at 4° C. Lysates were sonicated briefly and clarified by centrifugation for 15 min at 14,000 rpm and supernatants were collected. Protein concentration in the soluble fraction was determined by BCA protein assay (Thermo Scientific). 20 μg of protein were resolved on 4-20% Bis-Tris gradient gel (Invitrogen) and transferred to nitrocellulose membrane. The resulting blots were blocked for 1 hr at room temperature with Odyssey blocking solution (LI-COR) and then incubated with anti-phospho-eIF4E (Millipore), anti-eIF4E (Santa Cruz), anti-CCND3 (Cell Signaling) or anti-IRF7 (Cell Signaling) at 4° C. overnight. I3-actin was used as a loading control. […] The blots were then washed and scanned, specific proteins were detected by using the LI-COR Odyssey infrared imager. • (d) Non-Radioactive Nascent Protein Synthesis Assay

Cyclin D3 = test: Immunoblotting of cyclin D3 protein in TMD8 cells; assay type: cell-based, human; conditions: increasing concentrations, 48 hours
Description: as §1, §2, §3

TMD8 cells [2] = test: Polysome profiling; assay type: cell-based, human; conditions: 0.3 or 10 μM, 3 or 48 hours
Description: TMD8 human diffuse large B-cell lymphoma line was cultured in RPMI media supplemented with penicillin G (100 U/ml), streptomycin (100 μg/ml), 10% FBS in a humidified atmosphere of 5% CO2 maintained at 37° C. • (b) Drug Treatment TMD8 cells were seeded prior to drug treatment. The following day, cells were treated with either DMSO (vehicle control) or MNK inhibitor (Compound 107) at the appropriate dose and time. • (c) Immunoblotting Cells were washed with cold PBS supplemented with cycloheximide and lysed with 1× mammalian cell lysis buffer for 10 minutes on ice. Lysates were clarified by centrifugation for 10 minutes at 14,000 rpm and supernatants were collected. The clarified lysate was loaded onto a 10-50% sucrose gradient containing 0.1 mg/ml cycloheximide (gradients were prepared using a BioComp Gradient Station) and centrifuged at 40,000 rpm for 2 hours at 4° C. using a SW40Ti rotor in a BECKMAN COULTER Optima L8-[…] ultra centrifuge. Polysome fractions were isolated using the BioComp Gradient Station. • (f) Ribosome Profiling

[3] = system: CD3/CD28 activated T cells; test: Cytokines/chemokines in CD3/CD28 activated T cells; assay type: cell-based
LAG-3 = LAG-3 protein expression in TMD8 cells; assay type: cell-based, human; conditions: data not shown
eIF4F complex = test: eIF4G bound to eIF4E (eIF4F complex) in TMD8 cells; assay type: cell-based, human; conditions: increased concentrations
TMD8 cells [4] = test: Cytokine/chemokine protein expression in TMD8 cells; assay type: cell-based, human
IRF7 = test: Immunoblotting of IRF7 protein in TMD8 cells; assay type: cell-based, human; conditions: 48 hours, FIG. 6
Description: as §1, §2, §3

activated T cells = test: Cell surface PD-1 and LAG-3 on CD3/CD28 activated T cells; assay type: cell-based
TMD8 cells [5] = test: Ribosome profiling (translational rate RPF, translational efficiency, mRNA); assay type: cell-based, human; conditions: for # Genes Down Regulated / # Genes Up Regulated: 10 μM
Description: as §1, §2
Ribosomal profiling allows for measurement of changes in transcription and translation on a genome-wide basis accompanying inhibition of MNK with Compound 107 treatment of human DLBCL cells. Ribosome profiles of the Compound 107 treated TMD8 cells (about 3×10^6 cells/10 cm plate were harvested for ribosome profiling following drug treatment) were prepared and analyzed for changes in translational efficiencies with respect to potential disease-associated cellular changes accompanying MNK inhibition.
Briefly, cells were washed with cold PBS supplemented with cycloheximide and lysed with 1× mammalian cell lysis buffer for 10 minutes on ice. Lysates were clarified by centrifugation for 10 minutes at 14,000 rpm and supernatants were collected. Cell lysates were processed to generate ribosomal protected fragments and total mRNA according to the instructions included with the ARTSEQ Ribosome Profiling Kit (Illumina). Sequencing of total RNA (RNA) and of ribosome-protected fragments of RNA (RPF) was carried out using RNA-Seq methodology according to the manufacturer's instructions (Illumina). To analyze the ribosomal profiles, RNA-Seq reads were processed with tools from the FASTX-Toolkit (fastq quality trimmer, fastx clipper and fastx trimmer). Unprocessed and processed reads were evaluated for a variety of quality measures using FastQC. Processed reads were mapped to the human genome using Tophat. Gene-by-gene assessment of the number of fragments strictly and uniquely mapping to the coding region of each gene was conducted using HTSeq-count, a component of the HTSeq package. Differential analyses of Compound 107 treatment of TMD8 cells were carried out with the software packages DESeq for transcription (RNA counts) and translational rate (RPF counts) and BABEL (Olshen 2013) for translational efficiency based upon ribosomal occupancy (RPF counts) as a function of RNA level (RNA counts). The Log2 fold change in translational efficiency (TE) between drug treated and control is determined from the Log2 fold change difference in RPF and RNA values (drug treated versus to control).
Genes with low counts in either RPF or RNA were excluded from differential analyses. Biological process classification was done using Gene Ontology term analysis.
TMD8 cells were treated with DMSO or Compound 107 (0.3 or 10 μM) and cell lysates from two biological replicates were collected after 3 or 48 hours after treatment. The cell lysates were divided into two fractions and processed to quantitate the drug effects on the total mRNA (transcriptome) or RNase digested to generate the ribosome protected fragments (translatome). The raw sequencing counts were analyzed using DESeq analysis to determine differential expression or differential ribosome occupancy between DMSO and Compound 107 treatment and are reported as the loge fold change. Quantitation of the ribosome protected fragments (RPF) directly reflects the extent that a given transcript is bound by ribosomes and is a measure of the drug effects on translational rate.
Loge fold change in TE values are calculated from the difference in loge fold change in translational rate (RPF) between drug treated and control, and the loge fold change in total mRNA (drug treated vs. control). Evaluation of TE results in normalizing translation changes to transcript abundance. The statistical significance for TE values was determined using Babel software which was developed for assessing the significance of changes in translational regulation between conditions.

TMD8 cells [6] = test: Non-radioactive nascent protein synthesis assay (AHA incorporation); assay type: cell-based, human
Description: as §1, §2
Newly synthesized proteins were detected by using the CLICK-IT Biotin Protein Analysis Detection Kit (Life Technologies; C33372) according to the manufacturer's protocol. Briefly, cells were rinsed with PBS once and incubated in methionine-free media for 30 min in the presence of the compound before being pulsed with the nonradioactive azide-containing methionine analogue AHA for 2 hrs. Cell lysates were then collected for the labeling reactions. The newly synthesized, AHA-incorporated protein was crosslinked to alkyne-derivatized biotin by a copper (I)—catalyzed cycloaddition (CLICK-IT) according to the manufacturer's instructions (Life Technologies). Following the labeling reactions, proteins were precipitated and quantified and subsequently subjected to immunoblotting analysis. Anti-streptavidin-HRP was used to detect newly synthesized proteins that contained biotin-conjugated AHA. Amount of newly synthesized proteins can be quantified by densitometry. • (e) Polysome Profiling

TMD8 cells [7] = test: Proliferation of TMD8 cells; assay type: cell-based; conditions: Homo sapiens
TMD8 cells [8] = test: Cell survival of TMD8 cells; assay type: cell-based, human; conditions: increasing concentrations, data not shown
[9] = 3 hour, Translational Efficiency
[10] = 3 hour, Translational Rate (RPF)
[11] = 48 hour, Translational Efficiency
[12] = 48 hour, Translational Rate (RPF)

Cc1cc(Nc2cc(N)ncn2)c(=O)n2c1C(=O)NC21CCCCC1.Cl [Compound 107]
EC50 ([1]; Homo sapiens, TMD8 cell line, study report ECB-003, read-out: EC50 for inhibition of p-eIF4E): 0.0097 µM
inhibition of eIF4E phosphorylation (western blot) ([1]; TMD8 cells, 0.3-10 μM, 3 or 48 hours): essentially complete inhibition
cyclin D3 protein level (Cyclin D3): reduction in cyclin D3
polysome to monosome distribution (TMD8 cells [2]): not observed to alter
select cytokines/chemokines (TNFα, IL10, CXCL10) [3]: reduction
expression of LAG-3 at the protein level (LAG-3): selective decrease
eIF4G bound to eIF4E (eIF4F complex): decrease
cytokines evaluated (TNFα, IL6, IL10) (TMD8 cells [4]; DLBCL cell line TMD8): modulation of one or more of the cytokines evaluated
cytokine/chemokine biomarkers (CXCL10, IL6 and IL10) at the protein expression level (TMD8 cells [4]; data not shown): down regulated
IRF7 at the protein level (IRF7): decreased
cell surface levels of the immune checkpoint inhibitors PD-1 and LAG-3 (activated T cells; CD3/CD28 activated T cells): reduction
levels of PD-1 on the surface of activated T cells (activated T cells; data not shown): reduced
# Genes Down Regulated (TMD8 cells [5]; [9]): 24
# Genes Up Regulated (TMD8 cells [5]; [9]): 27
# Genes Down Regulated (TMD8 cells [5]; [10]): 58
# Genes Up Regulated (TMD8 cells [5]; [10]): 64
# Genes Down Regulated (TMD8 cells [5]; [11]): 31
# Genes Up Regulated (TMD8 cells [5]; [11]): 15
# Genes Down Regulated (TMD8 cells [5]; [12]): 123
# Genes Up Regulated (TMD8 cells [5]; [12]): 92
number of the 123 MNK-sensitive genes also down regulated at the mRNA expression level (TMD8 cells [5]; 48 hours, log2≤−0.75, p-value <0.01): 51
number of genes selectively down regulated at the translational level in the absence of substantial transcript changes (TMD8 cells [5]; 48 hours, log2≤−0.75, p-value <0.05): 27
translational efficiency of 3 hour gene set at 300 nM compared with 10 μM (TMD8 cells [5]; TMD8 cells, 3 hours, FIG. 7): equal or lesser extent
PD-1 translationally down regulated (TMD8 cells [5]; TMD8 cells, p-value=0.033, below significance cutoff): ~2 fold
global protein synthesis rates (TMD8 cells [6]; 10 μM for 48 hours): modest reduction
global protein synthesis (TMD8 cells [6]; 0.3 or 10 μM for 3 hours and 0.3 μM for 48 hours): no impact
global protein synthesis (TMD8 cells [6]; 3 hour treatment duration): negligible effects
EC50 (TMD8 cells [7]): 3.3 µM
cell survival (TMD8 cells [8]): promoted cell survival
